Measured values reported in article PMC6289105 (Organic & Biomolecular Chemistry, 2018).

Test system: Helix pomatia agglutinin (HPA)
Experiment: Bio-layer interferometry
Format: binding
Conditions: SA and SSA sensors; monovalent reference and negative control

BLI binding signal: no detectable signal
Structure (SMILES): CC(=O)N[C@H]1C(O)O[C@H](CO)[C@H](O)[C@@H]1O (stereo partly shown) [GalNAc]
